Columns and labels:
Type in all cases: in vivo
Blattella germanica [1] = test: Knockdown spray test on Blattella germanica, 2.0% w/v oil formulation (Test Example 1); details: topical, 0.25 h, active ingredient 2.0% w/v, 1.5 ml sprayed, within 15 minutes, read-out: knockdown rate of the test insects within 15 minutes
Experimental: Ten Blattella germanica (5 males and 5 females) were released in a test container (8.75 cm in diameter, 7.5 cm in height, and the bottom made of 16 mesh metallic wire) with the inner wall on which butter was applied, and the container was placed on the bottom of a test chamber (bottom: 46 cm×46 cm, height: 70 cm). From a height of 60 cm above the upper surface of the container, 1.5 ml of the test drug solution was sprayed using a spray gun (a spraying pressure of 0.42 kg/cm^2). Thirty seconds after spraying, the container was taken out from the test chamber, and after 2 minutes, 5 minutes and 15 minutes, the number of knocked-down insects was counted to obtain a knockdown rate. The knockdown rate was calculated by the following equation.
Knockdown Rate (%)=(Number of Knocked-down Insects/Number of Tested Insects)×100

Culex pipiens pallens = test: Knockdown spray test on adult Culex pipiens pallens (Test Example 4); details: topical, 0.25 h, active ingredient 0.1% w/v, 0.5 ml sprayed, within 15 minutes, read-out: knockdown rate of the test insects within 15 minutes
How it was run: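 Knockdown counts were taken 2, 5 and 15 min after spraying and expressed as percent of the 10 adults tested. For the spray, 0.5 ml of solution was applied by spray gun (0.4 kg/cm^2) from 30 cm above a gauze-covered cup in a test chamber; the cup was taken out right after spraying.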

Plutella xylostella = test: Foliar spray test on Plutella xylostella on cabbage (Test Example 10); details: 120 h, third instar larvae of Plutella xylostella on cabbage, 500 ppm spray 20 ml/cup, after five days, read-out: controlling value
Experimental: On the other hand, cabbage was planted in a polyethylene cup, and grown until the third-fourth true leaf was spread. The test spray solution was sprayed to the cabbage at a ratio of 20 ml/cup. After the drug solution sprayed on the cabbage was dried, 10 third instar larvae of Plutella xylostella were allowed to parasitize the cabbage. After five days, the number of Plutella xylostella was investigated, and the controlling value was calculated according to the following standard. Controlling value (%)={1−(Cb×Tai)/(Cai×Tb)}×100 In the equation, the symbols represent as follows. Cb: the number of insects in a non-treated section before treatment Cai: the number of insects in a non-treated section on observation Tb: the number of insects in a treated section before treatment Tai: the number of insects in a treated section on observation

Blattella germanica [2] = test: Knockdown spray test on Blattella germanica, 0.1% w/v oil formulation (Test Example 2); details: topical, 0.25 h, active ingredient 0.1% w/v, 1.5 ml sprayed, within 15 minutes, read-out: knockdown rate of the test insects within 15 minutes
How it was run: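 Ten German cockroaches (5 males, 5 females) in a mesh-bottomed, butter-walled container were sprayed with 1.5 ml test solution from 60 cm at 0.42 kg/cm^2 inside a chamber.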

Musca domestica = test: Filter paper/sucrose bait death rate test on Musca domestica (Test Example 5); details: female imagoes of Musca domestica, 0.7 ml on filter paper, after 24 hours
Experimental: A filter paper having a diameter of 5.5 cm was spread on the bottom of a polyethylene cup having the same diameter and 0.7 ml of the test drug solution was added dropwise onto the filter paper, and 30 mg of sucrose was uniformly placed as bait.
Into the polyethylene cup, 10 female imagoes of Musca domestica were released, and the cup was sealed with a lid. After 24 hours, the life and death of Musca domestica was examined, and the death rate was calculated. The death rate was calculated by the following equation.
Death rate (%)=(Number of dead insects/Number of tested insects)×100

Row | Compound | pest or weed control at 2 % strength (Blattella germanica [1]) [%] | pest or weed control at 0.1 % strength (Culex pipiens pallens) [%] | pest or weed control at 500 ppm (Plutella xylostella) [%] | pest or weed control at 0.1 % strength (Blattella germanica [2]) [%] | pest or weed control at 500 ppm (Musca domestica) [%]
1 | O=C(NCC1CCOC1)c1cc(COCCc2ccccc2)on1 (centres unmarked) [(25), N-(tetrahydrofuran-3-ylmethyl)-5-(2-phenylethyl)oxymethylisoxazole-3-carboxamide] | ≥ 80 | ≥ 80 |  |  | 
2 | Cc1cccc(COCc2cc(C(=O)NCC3CCOCC3)no2)c1 [(83), N-(tetrahydropyran-4-ylmethyl)-5-(3-methylbenzyloxymethyl)isoxazole-3-carboxamide] |  | ≥ 80 | ≥ 90 | ≥ 80 | 
3 | Cc1ccc(COCc2cc(C(=O)NCC3CCOC3)no2)cc1 (centres unmarked) [(97), N-(tetrahydrofuran-3-ylmethyl)-5-(4-methylbenzyloxymethyl)isoxazole-3-carboxamide] |  | ≥ 80 | ≥ 90 | ≥ 80 | 
4 | CSc1ccc(COCc2cc(C(=O)NCC3CCOCC3)no2)cc1 [(104), N-(tetrahydropyran-4-ylmethyl)-5-(4-methylthiobenzyloxymethyl)isoxazole-3-carboxamide] |  | ≥ 80 | ≥ 90 | ≥ 80 | 
5 | O=C(NCC1CCCOC1)c1cc(COCc2ccccc2)on1 (centres unmarked) [(37), N-(tetrahydropyran-3-ylmethyl)-5-benzyloxymethylisoxazole-3-carboxamide] | ≥ 80 | ≥ 80 |  |  | 
6 | O=C(NCC1CCCO1)c1cc(COCc2ccccc2)on1 (centres unmarked) [(32), N-(tetrahydrofuran-2-ylmethyl)-5-benzyloxymethylisoxazole-3-carboxamide] | ≥ 80 | ≥ 80 |  |  | 
7 | O=C(NCC1CCOC1)c1cc(COCCOc2ccccc2)on1 (centres unmarked) [(149), N-(tetrahydrofuran-3-ylmethyl)-5-(2-phenoxyethoxymethyl)isoxazole-3-carboxamide] | ≥ 80 | ≥ 80 |  | ≥ 80 | 
8 | Cc1ccc(COCc2cc(C(=O)NCC3CCOCC3)no2)cc1 [(98), N-(tetrahydropyran-4-ylmethyl)-5-(4-methylbenzyloxymethyl)isoxazole-3-carboxamide] |  | ≥ 80 | ≥ 90 | ≥ 80 | 
9 | CSc1ccc(COCc2cc(C(=O)NCC3CCOC3)no2)cc1 (centres unmarked) [(103), N-(tetrahydrofuran-3-ylmethyl)-5-(4-methylthiobenzyloxymethyl)isoxazole-3-carboxamide] |  | ≥ 80 | ≥ 90 | ≥ 80 | 
10 | O=C(NCC1COC1)c1cc(COCc2ccccc2)on1 [(337), N-(oxetan-3-ylmethyl)-5-benrzyloxymethylisoxazole-3-carboxamide] | ≥ 80 | ≥ 80 |  |  | 
11 | O=C(NCC1CCOC1)c1cc(Cc2cccc(OC(F)(F)F)c2)on1 (centres unmarked) [(313), N-(tetrahydrofuran-3-ylmethyl)-5-(3-trifluoromethoxybenzyl) isoxazole-3-carboxamide] |  | ≥ 80 | ≥ 90 | ≥ 80 | ≥ 90
12 | CCCc1cc(C(=O)NCC2CCOC2)no1 (centres unmarked) [(10), N-(tetrahydrofuran-3-ylmethyl)-5-propylisoxazole-3-carboxamide] | ≥ 80 |  |  |  | 
13 | CCCCCc1cc(C(=O)NCC2CCOC2)no1 (centres unmarked) [(12), N-(tetrahydrofuran-3-ylmethyl)-5-pentylisoxazole-3-carboxamide] | ≥ 80 | ≥ 80 |  |  | 
14 | Cc1cccc(COCc2cc(C(=O)NCC3CCOC3)no2)c1 (centres unmarked) [(82), N-(tetrahydrofuran-3-ylmethyl)-5-(3-methylbenzyloxymethyl)isoxazole-3-carboxamide] |  | ≥ 80 |  | ≥ 80 | ≥ 90
15 | O=C(NCC1CCOC1)c1cc(COCc2cc(F)c(F)c(F)c2)on1 (centres unmarked) [(267), N-(tetrahydrofuran-3-ylmethyl)-5-(3,4,5-trifluorobenzyloxymethyl)isoxazole-3-carboxamide] |  | ≥ 80 |  | ≥ 80 | ≥ 90
16 | COc1cccc(COCc2cc(C(=O)NCC3CCOC3)no2)c1 (centres unmarked) [(84), N-(tetrahydrofuran-3-ylmethyl)-5-(3-methoxybenzyloxymethyl) isoxazole-3-carboxamide] |  | ≥ 80 |  | ≥ 80 | ≥ 90
17 | O=C(NCC1CCOC1)c1cc(Cc2ccc(F)c(F)c2F)on1 (centres unmarked) [(324), N-(tetrahydrofuran-3-ylmethyl)-5-(2,3,4-trifluorobenzyl)isoxazole-3-carboxamide] |  | ≥ 80 |  | ≥ 80 | ≥ 90
18 | CC(OCc1cc(C(=O)NCC2CCOC2)no1)c1ccc2ccccc2c1 (centres unmarked) [(28), N-(tetrahydrofuran-3-ylmethyl)-5-[1-(2-naphthyl)ethyl]oxymethylisoxazole-3-carboxamide] | ≥ 80 | ≥ 80 |  |  | 
19 | Cc1c(C(=O)NCC2CCOC2)noc1Cc1cccc(F)c1 (centres unmarked) [(294), N-(tetrahydrofuran-3-ylmethyl)-4-methyl-5-(3-fluorobezyl)isoxazole-3-carboxamide] |  | ≥ 80 | ≥ 90 | ≥ 80 | ≥ 90
20 | COCc1c(F)c(F)c(COCc2cc(C(=O)NCC3CCOC3)no2)c(F)c1F (centres unmarked) [(29), N-(tetrahydrofuran-3-ylmethyl)-5-(4-methoxymethyl-2,3,5,6-tetrafluorobenzyl)oxymethylisoxazole-3-carboxamide] | ≥ 80 | ≥ 80 |  |  | 
21 | O=C(NCC1CCOCC1)c1cc(COCc2ccccc2Cl)on1 [(67), N-(tetrahydropyran-4-ylmethyl)-5-(2-chlorobenzyloxymethyl)isoxazole-3-carboxamide] |  | ≥ 80 |  | ≥ 80 | ≥ 90
22 | O=C(NCC1CCOC1)c1cc(COC2CCCC2)on1 (centres unmarked) [(19), N-(tetrahydrofuran-3-ylmethyl)-5-cyclopentyloxymethylisoxazole-3-carboxamide] | ≥ 80 |  |  |  | 
23 | COc1ccc(COCc2cc(C(=O)NCC3CCOCC3)no2)cc1 [(100), N-(tetrahydropyran-4-ylmethyl)-5-(4-methoxybenzyloxymethyl) isoxazole-3-carboxamide] |  | ≥ 80 | ≥ 90 | ≥ 80 | ≥ 90
24 | CCC1(CNC(=O)c2cc(COCc3ccccc3)on2)COCOC1 [(38), N-[5-ethyl-5-(1,3-dioxanylmethyl)]-5-benzyloxymethylisoxazole-3-carboxamide] | ≥ 80 | ≥ 80 |  |  | 
25 | O=C(NCC1CCOC1)c1cc(COCc2cc(F)cc(Cl)c2)on1 (centres unmarked) [(268), N-(tetrahydrofuran-3-ylmethyl)-5-(3-chloro-5-fluorobenzyloxymethyl)isoxazole-3-carboxamide] |  | ≥ 80 |  | ≥ 80 | ≥ 90
26 | O=C(NCC1CCOC1)c1cc(COc2ccccc2)on1 (centres unmarked) [(23), N-(tetrahydrofuran-3-ylmethyl)-5-phenyloxymethylisoxazole-3-carboxamide] | ≥ 80 | ≥ 80 | ≥ 90 |  | 
27 | O=C(NCC1CCOC1)c1cc(COCc2cccc(Oc3ccccc3)c2)on1 (centres unmarked) [(114), N-(tetrahydrofuran-3-ylmethyl)-5-(3-phenoxybenzyloxymethyl) isoxazole-3-carboxamide] | ≥ 80 | ≥ 80 |  |  | 

Reference: patent US20150344466A1 (SUMITOMO CHEMICAL COMPANY, LIMITED, priority 2013, published 2015)
